The record followed here is paper PMC11483378, “Triazole-Based Thiamine Analogues as Inhibitors of Thiamine Pyrophosphate-Dependent Enzymes: 1,3-Dicarboxylate for Metal Binding” (ACS Omega, 2024).

In data set [1] the target is A. viridans PO (Aerococcus viridans, UniProt A9X9K8). The data set is described as follows: A. viridans PO inhibitory activity assay (quinoneimine dye). It counts as biochemical. To be noted: read-out: KM(TPP). How it is done:
A. viridans PO and horseradish peroxidase were purchased from Sigma. A. viridans PO activity was determined by monitoring appearance of quinoneimine dye at 550 nm using a microplate reader (CLARIOstar) and conducted as described[5] with some modifications. […] The reaction buffer (50 mM KH2PO4 and 10 mM MgCl2, pH 5.9) contained TPP at specified concentrations, 10 μM flavin adenine dinucleotide, 0.15% 4-aminoantipyrine, 0.3% N-ethyl-N-(2-hydroxy-3-sulfopropyl)-m-toluidine (EHSPT), 50 μg/mL horseradish peroxidase, and 0.35 U/mL A. viridans PO. The reaction mixture was preincubated at 37 °C with inhibitor for 30 min, and then the reaction was initiated by adding pyruvate to a final concentration of 50 mM. To determine the IC50, TPP concentration was set at 60 μM with varying inhibitor concentrations. One unit of PO activity is defined as the production of 1 μmol of hydrogen peroxide per minute. The IC50 values were calculated from nonlinear regression curve fitting using GraphPad Prism.
(§1) Enzyme inhibitory activity assays – methods and results (Figures S1-4) […]
(§2) The compound […]
A. viridans PO inhibitory activity assay. A. viridans PO and horseradish peroxidase were purchased from Sigma. A. viridans PO activity was determined by monitoring appearance of quinoneimine dye at 550 nm using a microplate reader (CLARIOstar) and conducted as described3 with some modifications. […]
buffer (50 mM KH2PO4 and 10 mM MgCl2, pH 5.9) contained TPP at specified concentrations, 10 µM flavin adenine dinucleotide (FAD), 0.15% 4-aminoantipyrine, 0.3% N-ethyl-N-(2-hydroxy-3-sulfopropyl)-m-toluidine (EHSPT), 50 µg/mL horseradish peroxidase and 0.35 U/mL A. viridans PO. The reaction mixture was preincubated at 37 °C with inhibitor for 30 min, then reaction was initiated by adding pyruvate to a final concentration of 50 mM. To determine the IC50, TPP concentration was set was set at 60 µM with varying inhibitor concentrations. One unit of PO activity is defined as the production of 1 μmol of hydrogen peroxide per minute. The IC 50 values were calculated from non-linear regression curve fitting using GraphPad Prism. […]

A short description of data set [2]: PAMPA (parallel artificial membrane permeability assay). Format: in vitro ADME. As for the experimental part: PAMPA – methods and results (Table S2)
PAMPA was carried out in 96-well microtiter filter plates obtained from Millipore as described1 with some modifications. Each well of the filter plate was impregnated with 15 µL of 5% hexadecane dissolved in hexane (i.e. total amount of hexadecane: 0.75 µL) for at least 10 minutes in ventilated environment to allow for complete evaporation of hexane. Donor compartments were filled with 200 µL compound-containing donor solutions of compounds dissolved in 5% DMSO, phosphate buffered saline PBS) and connected to acceptor plate prefilled with buffer (5% DMSO in PBS, pH 7.4). The resulting sandwich was incubated at room temperature under gentle shaking and wrapped in wet paper towels to avoid evaporation. After 10 hours, the sandwich was disassembled and the solutions in the acceptor and donor were transferred to a disposable UV-transparent plate. UV absorption was measured at wavelengths between 220 and 340 nm using a microplate reader (CLARIOstar).
Compounds were tested at 500 µM. Calibration to determine concentration of compounds were performed with varying compound concentrations in buffer (5% DMSO in PBS).
The artificial membrane permeability is expressed as fraction absorbed (Fa%)2 or log Pe (log of the effective permeability)1. LogD values at pH 7.4 were calculated using MarvinSketch.
Fa% = 100 ∙CA ∙VA / CD0 ∙ VD where: CA = final drug concentration in the acceptor well (µM)
VA = volume in the acceptor well (cm3)
CD0 = Initial drug concentration in the donor well (µM)
VD = volume in the donor well (cm3) log P (cm/s) = log -ln 1-CA/Cequilibrium
S = surface area (cm2), typically 0.268 cm2
Cequilibrium = theoretical equilibrium concentration = [CD ∙VD+CA ∙VA] / [VD+VA] where: CD = final drug concentration in the donor well (µM)
CA = final drug concentration in the acceptor well (µM)
Table S2. Permeability data.
Compounds Fa (%) PAMPA log Pe (cm/s) cLogD (pH = 7.4)

In data set [3] the target is T1, Porcine PDH E1 (Sus scrofa, UniProt P29804).
T1 sequence (P29804 31-390): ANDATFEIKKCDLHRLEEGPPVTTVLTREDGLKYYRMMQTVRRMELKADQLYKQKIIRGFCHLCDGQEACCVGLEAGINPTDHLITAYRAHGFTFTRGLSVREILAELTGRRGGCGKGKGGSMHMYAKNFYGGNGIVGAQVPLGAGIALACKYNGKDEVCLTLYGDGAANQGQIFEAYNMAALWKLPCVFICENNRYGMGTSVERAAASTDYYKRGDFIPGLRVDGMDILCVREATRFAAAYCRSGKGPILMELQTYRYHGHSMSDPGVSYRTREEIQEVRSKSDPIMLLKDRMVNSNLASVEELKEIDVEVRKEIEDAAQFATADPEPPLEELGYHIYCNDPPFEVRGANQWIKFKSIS
The data set is described as follows: Porcine PDH E1 inhibitory activity assay (DCPIP reduction). It counts as biochemical. As for the experimental part:
Porcine PDH E1 was purchased from Sigma. Porcine PDH E1 activity was determined by monitoring 2,6-dichlorophenolindophenol (DCPIP) reduction at 600 nm using a microplate reader (CLARIOstar) and conducted as described[5] with some modifications. […] The reaction buffer (50 mM KH2PO4 and 1 mM MgCl2, pH 7) contained thiamine pyrophosphate (TPP) at specified concentrations, 0.25 mM DCPIP, and 2 mg/mL porcine PDH E1. The reaction mixture was preincubated at 37 °C with the inhibitor for 30 min, and then the reaction was initiated by adding pyruvate to a final concentration of 50 mM. To determine the half-maximal inhibitory concentration (IC50), the TPP concentration was set at 60 μM with varying inhibitor concentrations. Specific activity was calculated using the molar extinction coefficient of DCPIP, 21 mM^–1 cm^–1.[28] The IC50 values were calculated from nonlinear regression curve fitting using GraphPad Prism.
Porcine PDH E1 inhibitory activity assay. Porcine PDH E1 was purchased from Sigma. Porcine PDH E1 activity was determined by monitoring 2,6-dichlorophenolindophenol (DCPIP) reduction at 600 nm using a microplate reader (CLARIOstar) and conducted as described3 with some modifications. The […]
buffer (50 mM KH2PO4 and 1 mM MgCl2, pH 7) contained thiamine pyrophosphate (TPP) at specified concentrations, 0.25 mM 2,6-dichlorophenolindophenol (DCPIP), and 2 mg/mL porcine PDH E1. The reaction mixture was preincubated at 37 °C with the inhibitor for 30 min, then reaction was initiated by adding pyruvate to a final concentration of 50 mM. To determine the half-maximal inhibitory concentration (IC50), TPP concentration was set at 60 µM with varying inhibitor concentrations. […]
values were calculated from non-linear regression curve fitting using GraphPad Prism. […]

Data set [4] is described as follows: Solubility in aqueous buffer / enzyme assay conditions. It counts as physicochemical.
Data set [5] addresses E. coli OGDH E1 (Escherichia coli, UniProt P0AFG3). The data set is described as follows: E. coli OGDH E1 inhibitory activity assay (DCPIP reduction). It counts as biochemical. To be noted: compound at 200 μM, assay conditions of previous study. As for the experimental part:
E. coli OGDH E1 was from material donated by R. Frank. E. coli OGDH E1 activity was determined by monitoring DCPIP reduction at 600 nm using a microplate reader (CLARIOstar) and conducted as described[5] with some modifications. […] The reaction buffer (50 mM KH2PO4 and 2 mM MgCl2, pH 7) contained TPP at specified concentrations, 0.5 mM DCPIP, and 6.7 mg/mL E. coli OGDH E1. The reaction mixture was preincubated at 37 °C with the inhibitor for 60 min, and then the reaction was initiated by adding α-ketoglutarate to a final concentration of 10 mM. To determine the IC50, the TPP concentration was set at 60 μM with varying inhibitor concentrations. Specific activity was calculated using the molar extinction coefficient of DCPIP, 21 mM^–1 cm^–1.[28] The IC50 values were calculated from nonlinear regression curve fitting using GraphPad Prism.
as §1, §2
E. coli OGDH E1 inhibitory activity assay. E. coli OGDH E1 was from material donated by R. Frank. E. coli OGDH E1 activity was determined by monitoring DCPIP reduction at 600 nm using a microplate reader (CLARIOstar) and conducted as described3 with some modifications. The percentage inhibition of compounds against E. coli OGDH E1 was assayed at 250 μM. The reaction buffer (50 mM KH 2PO4 and 2 mM MgCl2, pH 7) contained TPP at specified concentrations, 0.5 mM DCPIP, and 6.7 mg/ml E. coli OGDH E1. The reaction mixture was preincubated at 37 °C with the inhibitor for 60 min, then reaction was initiated by adding α-ketoglutarate to a final concentration of 10 mM. To determine the IC50, TPP concentration was set at 60 µM with varying inhibitor concentrations. Specific activity was […]

Substrate in data set [6]: Cc1ncc(C[n+]2csc(CCO[P@](=O)(O)OP(=O)(O)O)c2C)c(N)n1
The data set is described as follows: S. cerevisiae PDC inhibitory activity assay (DCPIP reduction). It counts as biochemical, Saccharomyces cerevisiae. Particulars: 37.0 °C. As for the experimental part: S. cerevisiae PDC was purchased from Sigma. S. cerevisiae PDC activity was determined by monitoring DCPIP reduction at 600 nm using a microplate reader (CLARIOstar) and conducted as described[5] with some modifications. […] The reaction buffer (50 mM KH2PO4 and 1 mM MgCl2, pH 7) contained TPP at specified concentrations, 0.27 mM DCPIP, and 0.15 mg/mL S. cerevisiae PDC. The reaction mixture was preincubated at 37 °C with the inhibitor for 60 min, and then the reaction was initiated by adding pyruvate to a final concentration of 70 mM. […] Specific activity was calculated using the molar extinction coefficient of DCPIP, 21 mM^–1 cm^–1.[28] The IC50 values were calculated from nonlinear regression curve fitting using GraphPad Prism.
as §1, §2
S. cerevisiae PDC inhibitory activity assay. S. cerevisiae PDC was purchased from Sigma. S. cerevisiae PDC activity was determined by monitoring DCPIP reduction at 600 nm using a microplate reader (CLARIOstar) and conducted as described3 with some modifications. The percentage inhibition of compounds against S. cerevisiae PDC was assayed at 750 μM. The reaction buffer (50 mM KH 2PO4 and 1 mM MgCl2, pH 7) contained TPP at specified concentrations, 0.27 mM DCPIP, and 0.15 mg/ml S. cerevisiae PDC. […]
calculated from non-linear regression curve fitting using GraphPad Prism. […]

Sequence of A. viridans PO (A9X9K8 entry or part of it): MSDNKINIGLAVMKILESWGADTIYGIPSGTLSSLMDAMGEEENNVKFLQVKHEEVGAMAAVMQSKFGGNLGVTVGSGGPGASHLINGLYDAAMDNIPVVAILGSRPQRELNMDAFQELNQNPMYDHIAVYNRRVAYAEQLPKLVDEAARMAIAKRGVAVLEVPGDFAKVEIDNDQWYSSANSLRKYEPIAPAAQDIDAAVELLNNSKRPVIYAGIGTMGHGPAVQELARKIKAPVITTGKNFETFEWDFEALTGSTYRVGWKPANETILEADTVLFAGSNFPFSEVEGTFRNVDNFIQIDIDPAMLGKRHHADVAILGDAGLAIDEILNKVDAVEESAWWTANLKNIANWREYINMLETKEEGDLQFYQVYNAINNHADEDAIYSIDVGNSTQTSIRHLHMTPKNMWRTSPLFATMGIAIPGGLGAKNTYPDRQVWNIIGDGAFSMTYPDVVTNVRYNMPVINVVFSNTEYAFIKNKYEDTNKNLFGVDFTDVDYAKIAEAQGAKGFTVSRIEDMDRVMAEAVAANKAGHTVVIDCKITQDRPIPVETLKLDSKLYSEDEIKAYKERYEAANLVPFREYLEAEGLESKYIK
Sequence of E. coli OGDH E1 (P0AFG3 whole entry): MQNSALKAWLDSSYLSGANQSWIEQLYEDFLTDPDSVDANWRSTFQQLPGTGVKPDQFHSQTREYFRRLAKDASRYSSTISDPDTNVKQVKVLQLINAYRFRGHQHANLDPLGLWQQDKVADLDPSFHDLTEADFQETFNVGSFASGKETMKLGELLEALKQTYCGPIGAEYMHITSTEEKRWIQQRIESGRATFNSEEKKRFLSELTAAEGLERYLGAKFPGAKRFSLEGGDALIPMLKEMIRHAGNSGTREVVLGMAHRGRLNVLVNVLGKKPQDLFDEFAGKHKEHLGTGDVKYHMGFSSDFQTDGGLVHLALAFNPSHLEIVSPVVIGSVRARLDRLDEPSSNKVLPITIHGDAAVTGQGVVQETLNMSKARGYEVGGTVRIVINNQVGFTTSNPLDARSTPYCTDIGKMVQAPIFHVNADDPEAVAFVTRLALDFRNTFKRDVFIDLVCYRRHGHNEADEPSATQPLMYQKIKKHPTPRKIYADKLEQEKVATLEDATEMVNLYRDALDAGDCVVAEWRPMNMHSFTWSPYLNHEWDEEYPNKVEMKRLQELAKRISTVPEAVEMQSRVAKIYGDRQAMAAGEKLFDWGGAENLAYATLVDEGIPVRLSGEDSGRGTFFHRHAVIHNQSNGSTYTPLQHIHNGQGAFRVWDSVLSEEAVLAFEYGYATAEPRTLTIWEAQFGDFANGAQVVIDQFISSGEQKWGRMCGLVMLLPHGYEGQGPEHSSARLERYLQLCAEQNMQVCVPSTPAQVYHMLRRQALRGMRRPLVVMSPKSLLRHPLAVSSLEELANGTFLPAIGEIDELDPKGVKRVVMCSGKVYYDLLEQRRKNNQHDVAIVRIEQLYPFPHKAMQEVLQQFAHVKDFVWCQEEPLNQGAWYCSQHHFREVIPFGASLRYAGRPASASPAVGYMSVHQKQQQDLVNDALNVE

Regarding `Cc1ncc(C[n+]2csc(CCO[P@](=O)(O)OP(=O)(O)O)c2C)c(N)n1` [TPP, thiamine pyrophosphate], the Michaelis-Menten constant (Km) in data set [1] amounted to 5 µM.
On to `CCC(CC)COC(=O)[C@H](C)NP(=O)(OCCc1cn(Cc2cnc(C)nc2N)nn1)Oc1ccccc1` (stereo partly drawn) [compound 12], for which the “membrane permeability in PAMPA (in words)” value in data set [2] (PAMPA) was “membrane-permeable”. Besides, in data set [2] (PAMPA, compounds at 500 µM, 5% DMSO in PBS pH 7.4, 10 hours, room temperature, read-out: PAMPA log Pe (converted)), the Papp at 10 h, 500 µM was 7.94 ×10⁻⁶ cm/s. Also, the “Fa (fraction absorbed)” value in data set [2] (compounds at 500 µM, 5% DMSO in PBS pH 7.4, 10 hours, room temperature) was determined as 48%. The inhibition result in data set [3] (compound at 10 μM, assay conditions of previous study) is “no inhibition”; in data set [3] (compound at 100 μM), “no inhibition”; in data set [5], “no inhibition”. Moreover, the “solubility under the enzyme assay conditions” value in data set [4] (OGDH E1 assay, 300 μM) is reported as “insufficiently soluble”; in data set [4] (PDC assay conditions, 1300 μM), “not sufficiently soluble”; in data set [4] (PO assay conditions, 400 μM), “not sufficiently soluble”. In data set [4] (PBS with 5% DMSO, aqueous with cosolvent or surfactant or cyclodextrin, kinetic from dmso stock, read-out: solubility in aqueous environments), the solubility was below 300 µM.

B1: S. cerevisiae PDC (Saccharomyces cerevisiae S288C) (protein)
chain: SEITLGKYLFERLKQVNVNTVFGLPGDFNLSLLDKIYEVEGMRWAGNANELNAAYAADGYARIKGMSCIITTFGVGELSALNGIAGSYAEHVGVLHVVGVPSISAQAKQLLLHHTLGNGDFTVFHRMSANISETTAMITDIATAPAEIDRCIRTTYVTQRPVYLGLPANLVDLNVPAKLLQTPIDMSLKPNDAESEKEVIDTILALVKDAKNPVILADACCSRHDVKAETKKLIDLTQFPAFVTPMGKGSIDEQHPRYGGVYVGTLSKPEVKEAVESADLILSVGALLSDFNTGSFSYSYKTKNIVEFHSDHMKIRNATFPGVQMKFVLQKLLTTIADAAKGYKPVAVPARTPANAAVPASTPLKQEWMWNQLGNFLQEGDVVIAETGTSAFGINQTTFPNNTYGISQVLWGSIGFTTGATLGAAFAAEEIDPKKRVILFIGDGSLQLTVQEISTMIRWGLKPYLFVLNNDGYTIEKLIHGPKAQYNEIQGWDHLSLLPTFGAKDYETHRVATTGEWDKLTQDKSFNDNSKIRMIEIMLPVFDAPQNLVEQAKLTAATNAKQ
notes: purchased Sigma
In the case of B1, in data set [6], the Km was found to be 15 µM.
